Data on one compound can be found in patent US9931407B2, “Silicon based drug conjugates and methods of using same” (BlinkBio, Inc., priority 2015, dated 2018).

Where only a bound is given, the exact number is not on record here.

Data set [1] relates to Folate receptor alpha expressing KB cells. Briefly: Imaging study demonstrating endocytosis and Si-O cleavage (confocal microscopy). To be noted: 50 nM. Type of data set: cell-based. As for the experimental part:
Example 79 as shown above contains a folate receptor targeting ligand, a spacer moiety, a siloxane core and two different fluorescent dyes (BODIPY and rhodamine) positioned on either side of the siloxane core. Folate receptor alpha expressing KB cells were grown in folic acid free media. The cells were incubated for 30 minutes on ice with 50 nM of Example 79, washed with fresh culture medium and then incubated in media at 37° C. for the desired length of time. The fate of both dyes was simultaneously monitored using confocal microscopy using Zeiss LSM 780 laser scanning microscope.

Data set [2] is described as follows: Hydrolysis studies of silicon-linker constructs and conjugates (HEPES buffer, UPLC/MS).

For `CCN(CC)c1ccc2c(-c3ccc(S(=O)(=O)NCc4cnc(SC[Si](C)(C)O[Si](C)(C)CCCN5C(=O)CC(SC[C@H](NC(=O)[C@H](CNC(=O)CCC6=[N+]7C(=Cc8c(C)cc(C)n8[B-]7(F)F)C=C6)NC(=O)[C@H](CC(=O)O)NC(=O)CC[C@H](NC(=O)c6ccc(NCc7cnc8nc(N)[nH]c(=O)c8n7)cc6)C(=O)O)C(=O)O)C5=O)nc4)cc3S(=O)(=O)[O-])c3ccc(=[N+](CC)CC)cc-3oc2c1` (some centres unmarked) [Example 79], in data set [1] (37° C., t=30 min), the “Cleavage of the siloxane core (color separation of the two fluorescent dyes)” value is “cleavage of the siloxane core was observed” and the “Endocytosis of intact conjugate into the cell” value was “endocytosis of intact Example 79 into the cell was observed”. Besides, in data set [1] (30 minutes on ice, t=0), the “Binding to the folate receptor on the cell surface (colocalization of dyes)” value is “bound to the folate receptor on the cell surface”. Moreover, the half-life – broadly, the time needed for the level to fall by half in the phase considered – in data set [2] (pH 5) came to 100 min. Further, in data set [2] (pH 7.4), the half-life is above 1080 min.
